Data: publication PMC9119314 (Frontiers in Pharmacology, 2022)

What was measured:
[1] = system: A2780/cis cells; assay: Chemosensitivity MTT assay, cisplatin-resistant A2780/CIS; assay type: cell-based, human; details: Homo sapiens, A2780cis, 96 h, ± SE, read-out: Activity against A2780/cis cells, IC50
Method: (§1) The chemosensitivity of compounds 3–6 was assessed in the wild-type immortalized human ovarian adenocarcinoma cell line A2780 and its daughter cell lines, which are resistant to the standard cancer chemotherapeutics doxorubicin (A2780/ADR) and cisplatin (A2780/CIS, all cell lines from ECACC, Salisbury, United Kingdom). A modified MTT assay was used ([Shnyder et al., 2008]). Cells (2 × 10^4/ml) were inoculated into each well of a 96-well plate and incubated for 24 h at 37°C in a humidified atmosphere containing 5% CO2. Compounds were then added at a range of concentrations to each well, and the plates were then incubated for a further 96 h. After 96 h, the culture medium was removed and 200 μL of 0.5 mg ml^–1 MTT solution (Sigma) in the complete medium was added to each well. Following a further 4 h incubation, the solution was removed from each well and 150 μL of DMSO was added to solubilize the formazan crystals resulting from MTT conversion. The absorbance values for the resulting solutions were read at 540 nm on an Azure 96-well microplate reader (Azure Biosynstems Inc.), and the cell survival was calculated as the absorbance of treated cells divided by the control.

[2] = system: A2780/ADR cells; assay: Chemosensitivity MTT assay, doxorubicin-resistant A2780/ADR; assay type: cell-based; details: Homo sapiens, 96 h, ± SE, read-out: Activity against A2780/ADR cells, IC50
Method: as §1, with “A” for “The chemosensitivity of compounds 3–6 was assessed in the wild-type immortalized human ovarian adenocarcinoma cell line A2780 and its daughter cell lines, which are resistant to the standard cancer chemotherapeutics doxorubicin (A2780/ADR) and cisplatin (A2780/CIS, all cell lines from ECACC, Salisbury, United Kingdom). A”

[3] = system: P. falciparum (NF54-Mal8p1.16-GFP-Luc) late-stage gametocytes; assay: microbe, parasite or virus in culture; assay type: cell-based, Plasmodium falciparum; details: Plasmodium falciparum, NF54, 48 h, read-out: Activity against late-stage gametocytes IC50
Method: Gametocytes were produced as per [Reader et al. (2015]; [2021)] from P. falciparum NF54-Mal8p1.16-GFP-Luc ([Adjalley et al., 2011]), and each batch was validated for viability and functionality before use. […] Drug assays were set up on day 10 (representing late gametocytes, >90% stage IV/V gametocytes) using a 2–3% gametocytemia, 1.5% hematocrit culture. The drug pressure was for 48 h under stationary, hypoxic conditions (90% N2, 5% O2, and 5% CO2) at 37°C. Luciferase activity was determined in 30 μL parasite lysates by adding 30 μL luciferin substrate (Promega Luciferase Assay System) at room temperature and detection of resultant bioluminescence at an integration constant of 10 s with the GloMax®-Multi + Detection System with Instinct® Software. Methylene blue (5 μM) and an internal control (MMV390048, 5 μM) were routinely included as controls.

[4] = system: P. falciparum K1; assay: In vitro antiplasmodial activity, P. falciparum K1 (lactate dehydrogenase assay); assay type: cell-based, Plasmodium falciparum; details: Plasmodium falciparum; chloroquine-resistant strain K1, 48 h, mean ± SE; read-out: Activity against P. falciparum K1, IC50
Method: P. falciparum (K1 clone) was maintained in human erythrocytes prepared from the donated blood samples (blood groups unknown, Ethical Tissue, University of Bradford), suspended in the RPMI 1640 medium as previously described ([Wright et al., 2001]), except that serum was replaced with Albumax II, [5% (^w/v)]. […] Twofold serial dilutions were made in 96-well microtiter plates in duplicate, and infected erythrocytes were added to give a final volume of 100 µL with 2.5% hematocrit and 1% parasitemia. Chloroquine diphosphate was used as a positive control, and uninfected and infected erythrocytes without compounds were included in each test. The plates were placed into a modular incubator; gassed with 93% nitrogen, 3% oxygen, and 4% carbon dioxide; and incubated at 37°C for 48 h. The parasite growth was assessed by measuring lactate dehydrogenase activity as described by [Makler et al. (1993)]. The reagent used contained the following in each mL: acetylpyridine adenine dinucleotide (APAD), 0.74 mg; lithium lactate, 19.2 mg; diaphorase, 0.1 mg; Triton X-100, 2 μL; nitroblue tetrazolium, 1 mg; and phenazine ethosulphate, 0.5 mg. Fifty microliter of this reagent was added to each well and mixed; plates were incubated for 15 min at 37°C. The optical densities were read at 550 nm using an Azure 96-well microplate reader (Azure Biosystems Inc.), and % inhibition of growth was calculated by comparison with the control values. IC50 values were determined using linear regression analysis (Microsoft Excel). A minimum of three separate determinations was carried out for each compound.

[5] = system: P. falciparum gametocytes; design: method as in Forkuo et al., 2017; details: ref Forkuo et al., 2017; read-out: IC50 against gametocytes, previous data; cited from earlier work
[6] = system: P. berghei; details: P. berghei in mice, oral, 50 mg/kg/day; ref Wright et al., 1996; cited from earlier work
[7] = system: A2780/WT cells; assay: Chemosensitivity MTT assay, A2780 wild type; assay type: cell-based, human; details: Homo sapiens, A2780, 96 h, ± SE, read-out: Activity against A2780/WT cells, IC50
Method: as §1

[8] = system: T. brucei bloodstream forms (strain 427, derivative 221); details: ref Oluwafemi et al. 2009; read-out: Activity against T. brucei IC50; cited from earlier work
[9] = system: P. falciparum 3D7; assay: In vitro antiplasmodial activity, P. falciparum 3D7 (SYBR Green I); assay type: cell-based; details: Plasmodium falciparum; chloroquine-sensitive strain 3D7, 48 h; read-out: Activity against P. falciparum 3D7, IC50
Method: (§2) P. falciparum (3D7 clone) and P. knowlesi (A1-H.1 clone) were maintained in culture in RPMI 1640 supplemented with 25 mM HEPES, 25 mM NaHCO3, 10 mM D-glucose, 2 mM L-glutamine, 50 mg/L hypoxanthine, 25 mg/L gentamicin sulfate, 5 g/L Albumax II, and 10% (v/v) equine serum (Thermo Fisher Scientific, 26-050-088). The P. falciparum (3D7) and P. knowlesi (A1-H.1) parasites were grown in human A^+ red blood cells (National Health Blood and Transplant, United Kingdom). The parasites were incubated in sealed flasks at 37°C under a culture gas mixture of 96% N2, 3% CO2, and 1% O2. ([van Schalkwyk et al., 2019]). The compounds were initially dissolved in DMSO prior to diluting in RPMI. All experiments were initiated using unsynchronized parasites with both the parasitemia and hematocrit set to 1%. Drug susceptibility assays were set up in 96-well, flat-bottom microplates in a final volume of 200 μL, as described previously ([van Schalkwyk et al., 2017]). The controls were included for the background fluorescence (0% viability; parasites exposed to a supralethal 10 μM chloroquine concentration) and 100% growth (parasites in drug-free wells). The plates were incubated for one complete life cycle (27 h for P. knowlesi or 48 h for P. falciparum in vitro) at 37°C in a modular incubation chamber (Billups-Rothenburg Inc.) under the culture gas. Upon termination of the assay, the plates were stored at −20°C overnight. The SYBR Green I fluorescent method was used to measure parasite survival ([Bennett et al., 2004]; [Smilkstein et al., 2004]). After the microplates were thawed, 100 μL from each well was transferred into a duplicate plate. To this was added 100 μL of SYBR green solution [SYBR Green I (Thermo Fisher Scientific, S7563), diluted 1:5000 in a lysis buffer made of 20 mM Tris, 5 mM EDTA, 0.008% (w/v) saponin, 0.08% (v/v) Triton X-100, pH 7.5]. The plates were stored in the dark for 1 h before fluorescence was read at a 490 nm excitation wavelength and a 520 nm emission wavelength on a Spectramax M3 microplate reader (Molecular Devices) ([van Schalkwyk et al., 2017]). The background fluorescence (wells with parasites at 0% viability) was subtracted from all drug assay wells, and the parasite proliferation was determined as a percentage of the fluorescence in the drug-free control wells.

[10] = system: P. knowlesi A1-H.1; assay: In vitro antiplasmodial activity, P. knowlesi A1-H.1 (SYBR Green I); assay type: cell-based, Plasmodium knowlesi; details: Plasmodium knowlesi, 27 h, read-out: Activity against P. knowlesi A1-H.1, IC50, 27 h, ± SD
Method: as §2

## Cn1c2c3ccccc3nc-2cc2ccccc21 [Compound 1, cryptolepine]
[1]
  IC50: 670 ± 390 nM
[2]
  IC50: 1270 ± 600 nM
[3]
  IC50: 2400 ± 300 nM
[4]
  IC50: 440 ± 220 nM
[5]
  IC50: 1970 nM
[6]
  Suppression of parasitemia compared to untreated infected controls: 80.5%
[7]
  IC50: 440 ± 200 nM
[8]
  IC50: 306 nM
[9]
  IC50: 460 ± 40 nM
[10]
  IC50: 1040 ± 23 nM
